According to ChEMBL document CHEMBL5108025, “New thiazole-based derivatives as EGFR/HER2 and DHFR inhibitors: Synthesis, molecular modeling simulations and anticancer activity” (Eur J Med Chem, 2022):
The source made the active and inactive calls. No cut-off for these calls is given here.

How the values were obtained:
PC-3 = test: Antiproliferative activity against human PC-3 cells after 72 hrs by MTT assay; assay type: functional, cell-based; details: PC-3, 72 h
[1] = Antitumor activity in 7,12-dimethylbenz [a]anthracene-induced non-lactating mammary glands solid tumor model of female Swiss albino mouse assessed as reduction in tumor volume at 2 mg/kg, ip; assay type: functional; set-up: scale not given: the % may be the effect or the level left
[2] = Toxicity in 7,12-dimethylbenz [a]anthracene-induced non-lactating mammary glands solid tumor model of female Swiss albino mouse assessed as mean body weight at 2 mg/kg, ip; assay type: organism-based; details: in vivo
Breast carcinoma cell = test: Induction of apoptosis in human breast cancer cells assessed as normalization of caspase-3 expression measured as caspase-3 score; assay type: functional, Breast cancer cell line
[3] = Toxicity in 7,12-dimethylbenz [a]anthracene-induced non-lactating mammary glands solid tumor model of female Swiss albino mouse assessed as reduction in body weight at 2 mg/kg, ip; assay type: organism-based; set-up: scale not given: the % may be the effect or the level left; details: in vivo
HeLa = test: Antiproliferative activity against human HeLa cells after 72 hrs by MTT assay; assay type: functional, cell-based
[4] = Antitumor activity in 7,12-dimethylbenz [a]anthracene-induced non-lactating mammary glands solid tumor model of female Swiss albino mouse assessed as mean tumor volume at 2 mg/kg, ip; assay type: functional
[5] = Antitumor activity in 7,12-dimethylbenz [a]anthracene-induced non-lactating mammary glands solid tumor model of female Swiss albino mouse assessed as mean tumor volume at 10 mg/kg, ip; assay type: functional
[6] = Antitumor activity in 7,12-dimethylbenz [a]anthracene-induced non-lactating mammary glands solid tumor model of female Swiss albino mouse assessed as reduction in tumor volume at 10 mg/kg, ip; assay type: functional; set-up: scale not given: the % may be the effect or the level left
MCF7 [7] = test: Induction of cell cycle arrest in human MCF7 cells assessed as decrease in DNA content at G2/M phase measured by propidium iodide/RNAse staining based flow cytometry analysis (reference value: 13.4%); assay type: functional; set-up: scale not given: the % may be the effect or the level left
Breast cancer cell line = test: Antitumor activity in 7,12-dimethylbenz [a]anthracene-induced non-lactating mammary glands solid tumor model of female Swiss albino mouse assessed as absence of ductal carcinoma in mammary gland at 10 mg/kg, ip measured by H and E staining method; assay type: functional, organism-based
[8] = target: Receptor tyrosine-protein kinase erbB-2 (Homo sapiens, UniProt P04626); test: Inhibition of recombinant human HER2 incubated for 40 to 45 mins and measured after 15 mins by Kinase-Glo Max assay
Chain of Receptor tyrosine-protein kinase erbB-2 (P04626 whole entry): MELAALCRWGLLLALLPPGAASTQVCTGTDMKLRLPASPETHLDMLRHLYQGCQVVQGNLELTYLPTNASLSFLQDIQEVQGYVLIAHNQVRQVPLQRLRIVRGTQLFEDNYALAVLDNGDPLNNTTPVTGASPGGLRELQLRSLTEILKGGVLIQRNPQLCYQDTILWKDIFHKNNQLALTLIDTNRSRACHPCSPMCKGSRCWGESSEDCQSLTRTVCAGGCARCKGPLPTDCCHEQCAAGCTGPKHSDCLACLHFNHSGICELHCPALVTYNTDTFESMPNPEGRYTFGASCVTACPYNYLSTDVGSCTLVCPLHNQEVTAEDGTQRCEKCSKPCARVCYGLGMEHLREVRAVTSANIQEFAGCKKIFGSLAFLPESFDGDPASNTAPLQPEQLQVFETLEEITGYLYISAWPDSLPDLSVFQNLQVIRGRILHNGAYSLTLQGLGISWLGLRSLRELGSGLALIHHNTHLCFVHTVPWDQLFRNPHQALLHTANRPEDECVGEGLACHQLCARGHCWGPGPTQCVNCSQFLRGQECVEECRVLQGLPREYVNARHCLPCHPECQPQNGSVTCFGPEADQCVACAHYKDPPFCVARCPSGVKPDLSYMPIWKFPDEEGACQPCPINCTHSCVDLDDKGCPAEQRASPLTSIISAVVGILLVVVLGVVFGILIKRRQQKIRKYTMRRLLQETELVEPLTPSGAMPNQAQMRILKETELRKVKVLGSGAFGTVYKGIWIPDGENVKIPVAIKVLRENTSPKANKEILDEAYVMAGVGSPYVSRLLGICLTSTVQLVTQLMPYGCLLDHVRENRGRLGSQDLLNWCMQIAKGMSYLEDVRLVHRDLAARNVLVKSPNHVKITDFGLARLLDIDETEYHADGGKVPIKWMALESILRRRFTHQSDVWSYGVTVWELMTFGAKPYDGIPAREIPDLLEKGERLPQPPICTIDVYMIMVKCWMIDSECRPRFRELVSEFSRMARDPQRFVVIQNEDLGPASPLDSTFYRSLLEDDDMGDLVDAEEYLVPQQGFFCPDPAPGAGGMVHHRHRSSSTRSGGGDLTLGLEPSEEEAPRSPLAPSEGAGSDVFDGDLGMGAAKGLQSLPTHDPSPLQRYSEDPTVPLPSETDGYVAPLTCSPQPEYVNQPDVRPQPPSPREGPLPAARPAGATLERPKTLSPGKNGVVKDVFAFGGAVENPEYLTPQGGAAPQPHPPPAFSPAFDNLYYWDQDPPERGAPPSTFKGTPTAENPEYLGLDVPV

Dihydrofolate reductase = target: T1, Dihydrofolate reductase (Homo sapiens, UniProt P00374); test: Inhibition of recombinant human DHFR expressed in Escherichia coli incubated for 15 mins and measured by ELISA
T1 sequence (P00374 whole entry): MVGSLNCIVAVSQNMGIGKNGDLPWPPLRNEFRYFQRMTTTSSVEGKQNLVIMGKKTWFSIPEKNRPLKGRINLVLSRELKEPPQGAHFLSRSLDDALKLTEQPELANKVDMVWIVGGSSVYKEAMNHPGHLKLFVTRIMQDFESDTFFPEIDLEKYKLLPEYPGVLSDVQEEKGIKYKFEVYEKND

[9] = Toxicity in 7,12-dimethylbenz [a]anthracene-induced non-lactating mammary glands solid tumor model of female Swiss albino mouse assessed as reduction in body weight at 10 mg/kg, ip; assay type: organism-based; set-up: scale not given: the % may be the effect or the level left; details: in vivo
[10] = Toxicity in 7,12-dimethylbenz [a]anthracene-induced non-lactating mammary glands solid tumor model of female Swiss albino mouse assessed as mean body weight at 10 mg/kg, ip; assay type: organism-based; details: in vivo
MCF7 [11] = test: Induction of apoptosis in human MCF7 cells assessed as late apoptotic cells level measured by propidium iodide/RNAse staining based flow cytometry analysis (reference value: 0.22%); assay type: functional
MCF7 [12] = test: Induction of cell cycle arrest in human MCF7 cells assessed as increase in DNA content at G0/G1 phase measured by propidium iodide/RNAse staining based flow cytometry analysis (reference value: 57.82%); assay type: functional
MCF7 [13] = test: Induction of apoptosis in human MCF7 cells assessed as early apoptotic cells level measured by propidium iodide/RNAse staining based flow cytometry analysis (reference value: […]); assay type: functional
MCF7 [14] = test: cells; details: Homo sapiens, MCF7, 72 h
WI-38 = test: Antiproliferative activity against human WI-38 cells after 72 hrs by MTT assay; assay type: functional, cell-based; details: WI-38, 72 h
[15] = target: Epidermal growth factor receptor (Homo sapiens, UniProt P00533)
Chain of Epidermal growth factor receptor (P00533 whole entry): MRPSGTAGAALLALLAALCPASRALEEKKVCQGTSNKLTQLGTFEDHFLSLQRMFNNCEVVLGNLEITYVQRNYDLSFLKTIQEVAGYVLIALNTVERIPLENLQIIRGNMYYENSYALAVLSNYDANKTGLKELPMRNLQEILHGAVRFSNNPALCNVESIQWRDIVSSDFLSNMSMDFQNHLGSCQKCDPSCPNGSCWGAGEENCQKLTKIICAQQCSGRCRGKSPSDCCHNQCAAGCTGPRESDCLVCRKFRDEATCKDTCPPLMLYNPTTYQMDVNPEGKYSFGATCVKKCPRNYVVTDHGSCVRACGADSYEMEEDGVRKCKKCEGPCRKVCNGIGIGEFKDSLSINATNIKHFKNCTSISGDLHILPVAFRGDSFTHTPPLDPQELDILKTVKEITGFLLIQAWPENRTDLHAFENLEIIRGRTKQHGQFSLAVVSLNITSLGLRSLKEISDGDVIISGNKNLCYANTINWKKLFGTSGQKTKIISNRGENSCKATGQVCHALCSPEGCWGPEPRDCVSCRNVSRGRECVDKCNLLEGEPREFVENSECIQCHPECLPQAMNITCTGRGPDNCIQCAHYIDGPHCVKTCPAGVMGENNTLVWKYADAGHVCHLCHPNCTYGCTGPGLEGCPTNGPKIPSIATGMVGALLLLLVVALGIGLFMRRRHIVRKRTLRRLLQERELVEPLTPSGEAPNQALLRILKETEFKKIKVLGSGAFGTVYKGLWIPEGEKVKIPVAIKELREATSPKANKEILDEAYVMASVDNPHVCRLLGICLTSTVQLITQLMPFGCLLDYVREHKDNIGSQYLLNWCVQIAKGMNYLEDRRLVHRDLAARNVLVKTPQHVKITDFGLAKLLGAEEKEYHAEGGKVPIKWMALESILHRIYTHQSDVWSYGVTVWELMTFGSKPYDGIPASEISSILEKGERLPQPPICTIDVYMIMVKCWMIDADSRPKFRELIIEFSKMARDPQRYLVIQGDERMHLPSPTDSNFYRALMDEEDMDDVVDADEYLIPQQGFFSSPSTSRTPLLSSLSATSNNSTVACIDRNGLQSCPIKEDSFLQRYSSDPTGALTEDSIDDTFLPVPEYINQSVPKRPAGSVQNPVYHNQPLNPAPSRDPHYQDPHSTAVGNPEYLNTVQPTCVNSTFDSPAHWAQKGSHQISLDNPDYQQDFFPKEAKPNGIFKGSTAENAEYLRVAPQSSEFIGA
Description: Inhibition of recombinant human EGFR incubated for 40 to 45 mins and measured after 15 mins by Kinase-Glo Max assay

MCF7 [16] = test: Induction of cell cycle arrest in human MCF7 cells assessed as increase in DNA content at S phase measured by propidium iodide/RNAse staining based flow cytometry analysis (reference value: […]%); assay type: functional
MCF7 [17] = test: Induction of apoptosis in human MCF7 cells assessed as total apoptotic cells level measured by propidium iodide/RNAse staining based flow cytometry analysis (reference value: 0.73%); assay type: functional
MCF7 [18] = test: Induction of necrosis in human MCF7 cells assessed as necrotic cells level measured by propidium iodide/RNAse staining based flow cytometry analysis (reference value: 0.9%); assay type: functional
HCT-116 = test: cells; details: Homo sapiens, HCT-116, 72 h
Description: Antiproliferative activity against human HCT-116 cells after 72 hrs by MTT assay

HepG2 = test: cells; details: Homo sapiens, HepG2, 72 h

Row | SMILES | IC50 (PC-3) [µM] | Activity (Breast carcinoma cell) | IC50 (HeLa) [µM] | Activity [5] [mm3] | Activity [6] [%] | Activity (MCF7 [7]) [%] | Activity (Breast cancer cell line) | IC50 [8] [µM] | IC50 (Dihydrofolate reductase) [µM] | Activity [9] [%] | Activity [10] [g] | Activity (MCF7 [11]) [%] | Activity (MCF7 [12]) [%] | Activity (MCF7 [13]) [%] | IC50 (MCF7 [14]) [µM] | IC50 (WI-38) [µM] | IC50 [15] [µM] | Activity (MCF7 [16]) [%] | Activity (MCF7 [17]) [%] | Activity (MCF7 [18]) [%] | also measured
1 | COc1cccc2c1C(=O)c1c(O)c3c(c(O)c1C2=O)C[C@@](O)(C(=O)CO)C[C@@H]3O[C@H]1C[C@H](N)[C@H](O)[C@H](C)O1 [DOXORUBICIN] | 8.54 | 1.5 | 8.87 | – | – | – | – | – | – | – | – | – | – | – | – | – | – | – | – | – | Activity [1]: 80.4%; Activity [2]: 29 g; Activity [3]: 23.7%; Activity [4]: 0.62 mm3
2 | CC(=O)NNC(=O)c1csc2ncc(-c3ccc(Br)cc3)n12 | 12.7 | 1.33 | 4.78 | 0.742 | 76.5 | 5.24 | Active | 0.108 | 0.291 | 17.4 | 31.4 | 28.04 | 62.61 | 9.63 | 1.83 | 54.2 | 0.153 | 32.15 | 37.67 | 6.72 | IC50 (HCT-116): 6.08 µM; IC50 (HepG2): 3.48 µM
3 | COc1ccc(-c2c(CN3CCOCC3)nc3scc(C(=O)NN)n23)cc1 | 18.4 | 1.17 | 9.43 | 1.098 | 65.3 | 10.26 | Active | 0.078 | 0.585 | 7.4 | 35.2 | 22.19 | 64.25 | 13.27 | 2.37 | 36.8 | 0.122 | 25.49 | 35.46 | 3.25 | IC50 (HCT-116): 16.2 µM; IC50 (HepG2): 12.2 µM
